Reference: patent US20110190503A1, “Thiazolopyridin-2-yloxy-phenyl and thiazolopyrazin-2-yloxy-phenyl amines as modulators of leukotriene A4 hydrolase” (Janssen Pharmaceutical NV, priority 2008, published 2011)

What was measured:
[1] = test system: ex vivo stimulated LTB4 production; assay: Murine arachidonic acid-induced inflammation model: ex vivo stimulated LTB4 production (% Inh. LTB4); details: Mus musculus; female Balb/c mice, 30 mg/kg oral gavage; blood taken 3 h after arachidonic acid, ex vivo A23187 stimulation; number of determinations in parentheses
Procedure: (§1) Assay 4: Murine Arachidonic Acid-Induced Inflammation Model
(§2) LTA4H inhibitor compounds of the present invention were dissolved in 20% cyclodextran/H2O at a concentration of 3 mg/mL. The solutions were administered by oral gavage to female Balb/c mice weighing approximately 20 grams each (0.2 mL per mouse, 30 mg of LTA4H inhibitor compound per kg). Sixty minutes after being administered an LTA4 inhibitor, each mouse received topical application of 20 μL of arachidonic acid (100 mg/mL in acetone) to the left ear and 20 μL of acetone only to the right ear. After 3 h, the mice were sacrificed, blood was withdrawn in heparinized syringes, and 8 mm ear biopsies were taken. Ear biopsies were weighed to determine edema and then frozen at −80° C. until needed for determination of neutrophil influx.
One hundred-microliter aliquots of heparinized blood were added to wells of a microtiter plate, along with equal volumes of RPMI-1640 medium, and calcium ionophore A23187 was added to each sample well (final concentration=[…]). The microtiter plate contents were incubated for 30 min at 37° C. in a humidified incubator. The reaction was terminated by centrifugation (833×g, 10 min at 4° C.). Supernatants were analyzed for LTB4 by a commercially available enzyme-linked immunoassay (Cayman Chemical Co.) in accordance with the manufacturer's instructions. The percent inhibition of ex vivo stimulated LTB4 production (% Inh. LTB4) was determined by comparison to animals treated identically except that the solution administered by oral gavage was devoid of inhibitor compound.
(§3) The number of determinations is indicated in parentheses following each value

[2] = test system: LTB4 production by calcium ionophore-stimulated murine blood; assay: LTB4 production by calcium ionophore-stimulated murine blood for LTA4H inhibitor activity; assay type: cell-based, CD-1 mice; details: Mus musculus; murine blood diluted 1 in 15, calcium ionophore A23187, LTB4 by immunoassay; read-out: IC50
How it was run: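 LTB4 quantified by EIA in supernatants after murine (CD-1) heparinized whole blood was exposed to compound for 15 min, then to 7 μg/mL (final) A23187 for 30 min, all at 37° C. Reported values: single runs or means; three or more runs include SD.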

[3] = target: T1, recombinant human LTA4 hydrolase (rhLTA4H) (Homo sapiens, UniProt P09960); assay: Recombinant human LTA4 hydrolase assay for LTA4 hydrolase inhibitor activity; assay type: biochemical; details: rhLTA4H, LTA4 substrate, LTB4 by immunoassay; single determination or average; read-out: IC50
T1 construct: made in house; host or cells: Spodoptera frugiperda (Sf-9) cells, recombinant baculovirus (pFastBac1)
T1 sequence (P09960 1-611): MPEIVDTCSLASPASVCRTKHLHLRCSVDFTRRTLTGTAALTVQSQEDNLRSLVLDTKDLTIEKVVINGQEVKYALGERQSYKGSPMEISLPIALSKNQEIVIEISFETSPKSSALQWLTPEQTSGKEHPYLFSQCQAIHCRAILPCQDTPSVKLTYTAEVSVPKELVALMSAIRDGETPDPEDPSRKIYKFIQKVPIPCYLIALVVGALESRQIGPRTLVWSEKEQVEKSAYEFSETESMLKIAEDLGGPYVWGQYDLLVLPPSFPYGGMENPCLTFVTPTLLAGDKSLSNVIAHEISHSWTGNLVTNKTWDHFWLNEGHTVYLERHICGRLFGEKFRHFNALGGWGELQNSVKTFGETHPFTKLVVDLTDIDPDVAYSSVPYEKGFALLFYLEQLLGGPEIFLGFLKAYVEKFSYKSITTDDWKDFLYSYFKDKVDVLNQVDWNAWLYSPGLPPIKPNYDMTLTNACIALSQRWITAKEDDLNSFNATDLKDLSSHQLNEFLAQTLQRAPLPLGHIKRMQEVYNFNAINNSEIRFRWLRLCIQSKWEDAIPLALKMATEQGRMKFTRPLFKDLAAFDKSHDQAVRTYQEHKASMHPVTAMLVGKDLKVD
How it was run: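 LTB4 formed from LTA4 substrate (free acid from the methyl ester) was quantified by enzyme immunoassay after a 30 min rt reaction. Enzyme was 10 ng Sf-9-expressed human LTA4 hydrolase, pre-incubated 10 min with compound.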

[4] = test system: neutrophil influx; assay: Murine arachidonic acid-induced inflammation model: neutrophil influx in ear, myeloperoxidase activity (% Inh. MPO); assay type: in vivo; details: Mus musculus, female Balb/c mice, 30 mg/kg oral gavage, ear biopsy 3 h after topical arachidonic acid, number of determinations in parentheses
Procedure: as §1, §2
Neutrophil influx was quantified by measuring the activity of myeloperoxidase (MPO), a neutrophil-specific enzyme. The ear biopsies were homogenized in 0.5 mL extraction buffer (0.3 M sucrose, 0.22% (w/v) hexadecyl trimethyl ammonium bromide (CTAB), and 2.5 mM citrate prepared from 0.5 M citrate stock solution (pH 5.0)), in a Fast-Prep-24 (MP™) (40 seconds at 6 mps). Debris was removed by centrifugation at 14000×g for 10 min. Aliquots of 10 μL of the resulting supernatant were added to wells of a microtiter plate, along with 90-μL aliquots of dilution buffer (10 mM citrate, 0.22% CTAB), followed by addition of 20 μL TMB liquid substrate system (Sigma Chemical Co.) to each sample well. The microtiter plate contents were held at room temperature until the sample with the highest concentration of MPO reached an absorbance value of 0.4 at 650 nm. The reaction was stopped by addition of 50 μL 1 M H2SO4 to each sample well, and the myeloperoxidase activity in each sample was determined from the absorbance at 405 nm. The background value from the right ear, treated only with acetone, was subtracted from that for the left ear, treated with arachidonic acid in acetone, for each animal. The percent inhibition of neutrophil influx (% Inh. MPO) by compounds of the invention was determined by comparison to animals treated identically, except that the solution administered by oral gavage was devoid of inhibitor compound.
as §3

SMILES	inhibition at 30 mg/kg [1] [%]	IC50 [2] [nM]	IC50 [3] [nM]	inhibition in vivo at 30 mg/kg [4] [%]
NC(=O)N1C[C@H]2C[C@@H]1CN2CCc1ccc(Oc2nc3ncccc3s2)cc1 [Example 80, (1R,4R)-5-{2-[4-([1,3]Thiazolo[4,5-b]pyridin-2-yloxy)phenyl]ethyl}-2,5-diazabicyclo[2.2.1]heptane-2-carboxamide]	72.1	80	2	37
O=C1C[C@@H](O)CN1C1CCN(CCOc2ccc(Oc3nc4ncccc4s3)cc2)CC1 [Example 270, (4R)-4-Hydroxy-1-(1-{2-[4-([1,3]thiazolo[4,5-b]pyridin-2-yloxy)phenoxy]ethyl}piperidin-4-yl)pyrrolidin-2-one]	75.9	120	10	60.6
CC(=O)N1C[C@@H]2CC[C@H]1CN2Cc1ccc(Oc2nc3ncccc3s2)cc1 [Example 290, 2-(4-{[(1S,4S)-5-Acetyl-2,5-diazabicyclo[2.2.2]oct-2-yl]methyl}phenoxy)[1,3]thiazolo[4,5-b]pyridine]	82.9	5	6	86.9
CN(C)CCC1CCCCN1Cc1ccc(Oc2nc3ncccc3s2)cc1 (stereo not shown) [Example 258, N,N-Dimethyl-2-{1-[4-([1,3]thiazolo[4,5-b]pyridin-2-yloxy)benzyl]piperidin-2-yl}ethanamine]	75	47	2	13.8
c1cnc2nc(Oc3ccc(CCN4CCCC4)cc3)sc2c1 [Example 61, 2-[4-(2-Pyrrolidin-1-ylethyl)phenoxy][1,3]thiazolo[4,5-b]pyridine]	67.4	11	4	62.8
CC(=O)N[C@H]1C[C@H]2CC[C@@H](C1)N2CCOc1ccc(Oc2nc3ncccc3s2)cc1 [Example 16, meso-N-[(3-endo)-8-{2-[4-([1,3]Thiazolo[4,5-b]pyridin-2-yloxy)phenoxy]ethyl}-8-azabicyclo[3.2.1]oct-3-yl]acetamide]	84.6	26	3	73.6
NC(=O)N1C[C@H]2CC[C@@H](C1)N2CCc1ccc(Oc2nc3ncccc3s2)cc1 [Example 54, meso-8-{2-[4-([1,3]Thiazolo[4,5-b]pyridin-2-yloxy)phenyl]ethyl}-3,8-diazabicyclo[3.2.1]octane-3-carboxamide]	81.2	75 ± 71	9.6	87.7
NC(=O)C1CCN(Cc2ccc(Oc3nc4ncc(F)cc4s3)cc2)CC1 [Example 283, 1-{4-[(6-Fluoro[1,3]thiazolo[4,5-b]pyridin-2-yl)oxy]benzyl}piperidine-4-carboxamide]	78.2	68		88.3
CC(=O)N1C[C@H]2CC[C@@H](C1)N2CCc1ccc(Oc2nc3cccnc3s2)cc1 [Example 53, meso-2-(4-{2-[3-Acetyl-3,8-diazabicyclo[3.2.1]oct-8-yl]ethyl}phenoxy)[1,3]thiazolo[5,4-b]pyridine]		2500	58	
NC(=O)N1[C@@H]2CC[C@H]1CN(CCOc1ccc(Oc3nc4ncccc4s3)cc1)C2 [Example 149, meso-3-{2-[4-([1,3]Thiazolo[4,5-b]pyridin-2-yloxy)phenoxy]ethyl}-3,8-diazabicyclo[3.2.1]octane-8-carboxamide]		180	63	
C[C@H](c1ccccc1)N(C)CCc1ccc(Oc2nc3ncccc3s2)cc1 [Example 58, (1R)—N-Methyl-1-phenyl-N-{2-[4-([1,3]thiazolo[4,5-b]pyridin-2-yloxy)phenyl]ethyl}ethanamine]		45	8	
O[C@@H]1CCN(Cc2ccc(Oc3nc4ncccc4s3)cc2)C1 [Example 94, (3R)-1-[4-([1,3]Thiazolo[4,5-b]pyridin-2-yloxy)benzyl]pyrrolidin-3-ol]		35	4	
CC(=O)N[C@H]1C[C@H]2CC[C@@H](C1)N2Cc1ccc(Oc2nc3cccnc3s2)cc1 [Example 119, meso-N-{(3-endo)-8-[4-([1,3]Thiazolo[5,4-b]pyridin-2-yloxy)benzyl]-8-azabicyclo[3.2.1]oct-3-yl}acetamide]		770	70	
c1ccc(CC2CCN(CCOc3ccc(Oc4nc5ncccc5s4)cc3)CC2)cc1 [Example 28, 2-{4-[2-(4-Benzylpiperidin-1-yl)ethoxy]phenoxy}[1,3]thiazolo[4,5-b]pyridine]		380	52	
NC(=O)N[C@@H]1C[C@H]2CC[C@@H](C1)N2CCc1ccc(Oc2nc3ncccc3s2)cc1 [Example 50, meso-1-[(3-exo)-8-{2-[4-([1,3]Thiazolo[4,5-b]pyridin-2-yloxy)phenyl]ethyl}-8-azabicyclo[3.2.1]oct-3-yl]urea]		2300	2	
CC1CCN(Cc2ccc(Oc3nc4ncccc4s3)cc2)CC1 [Example 97, 2-{4-[(4-Methylpiperidin-1-yl)methyl]phenoxy}[1,3]thiazolo[4,5-b]pyridine]		13	1	
O=C(O)CCNCc1ccc(Oc2nc3ncccc3s2)cc1 [Example 275, N-[4-([1,3]Thiazolo[4,5-b]pyridin-2-yloxy)benzyl]-beta-alanine]		3300	47	
c1ccc(C2CCN(CCOc3ccc(Oc4nc5ncccc5s4)cc3)CC2)nc1 [Example 34, 2-{4-[2-(4-Pyridin-2-ylpiperidin-1-yl)ethoxy]phenoxy}[1,3]thiazolo[4,5-b]pyridine]		140	19	
c1cncc(OC2CCN(Cc3ccc(Oc4nc5ncccc5s4)cc3)CC2)c1 [Example 98, 2-(4-{[4-(Pyridin-3-yloxy)piperidin-1-yl]methyl}phenoxy)[1,3]thiazolo[4,5-b]pyridine]		9	6	
OC1(c2ccc(Cl)cc2)CCN(CCc2ccc(Oc3nc4ncccc4s3)cc2)CC1 [Example 47, 4-(4-Chlorophenyl)-1-{2-[4-([1,3]thiazolo[4,5-b]pyridin-2-yloxy)phenyl]ethyl}piperidin-4-ol]		210	34	
